The values that follow come from US11504367B2, “Compounds and methods for treating oxalate-related diseases” (OxaluRx, Inc., priority 2019, dated 2022).

A short description of series [1]: Alternate liver microsome metabolic stability assay. Particulars: liver microsomes, 1 μM, at 30 minutes, all species tested. The series is classed as in vitro ADME, human, monkey, dog, rat, mouse. The method, then:
Metabolic Stability. For evaluating the metabolic stability in liver microsomal preparations, two buffers were prepared. Buffer A consisted of 10 mM NADPH and 0.5 mg/mL microsomes in 100 mM of phosphate buffer. Buffer B consisted of 0.5 mg/mL microsomes in 100 mM of phosphate buffer. The reference compound (verapamil) and test compound were prepared as 100 μM DMSO stocks. The source of liver microsomes was as follows: Human (BD Gentest, #452117), monkey (RILD, #LM-SXH-02M), dog (BD, #452601), Rat (BioIVT, #M00001), and mouse (BioIVT, #M00501).
The reaction was started by adding 2.5 μL of 100 μM control compound or test compound solutions to 216.25 μL of prewarmed (37° C.) assay buffer. The final concentration of the control compound and test compounds were 1 μM. […] The reaction was stopped by adding 5 volumes of cold acetonitrile with internal standards (100 nM alprazolam, 200 nM caffeine, and 100 nM tolbutamide). Samples were centrifuged at 3,220 g for 30 minutes. An aliquot of 100 μL of the supernatant was mixed with 100 μL of ultra-pure water and then used for LC-MS/MS analysis.

In series [2] the target is recombinant full-length human hydroxyacid oxidase 1 (HAO1), the equivalents of hGOX (Homo sapiens (Human), UniProt Q9UJM8). The series can be described thus: In-vitro human glycolate oxidase (hGOX) assay (Amplex red fluorescence). To be noted: 6 nM recombinant human GO, 85 μM glycolate, 10 min preincubation. It counts as biochemical. In short, it runs like this: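 Activity was read as Amplex Red fluorescence (560/590 nm), with 50 μM reagent added after a 10 min room-temperature incubation. The enzyme, full-length human HAO1, was in pH 7.4 HEPES buffer containing KCl, NaCl, MgCl2 and 0.01% Triton X-100.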
Sequence of recombinant full-length human hydroxyacid oxidase 1 (HAO1), the equivalents of hGOX (Q9UJM8 whole entry): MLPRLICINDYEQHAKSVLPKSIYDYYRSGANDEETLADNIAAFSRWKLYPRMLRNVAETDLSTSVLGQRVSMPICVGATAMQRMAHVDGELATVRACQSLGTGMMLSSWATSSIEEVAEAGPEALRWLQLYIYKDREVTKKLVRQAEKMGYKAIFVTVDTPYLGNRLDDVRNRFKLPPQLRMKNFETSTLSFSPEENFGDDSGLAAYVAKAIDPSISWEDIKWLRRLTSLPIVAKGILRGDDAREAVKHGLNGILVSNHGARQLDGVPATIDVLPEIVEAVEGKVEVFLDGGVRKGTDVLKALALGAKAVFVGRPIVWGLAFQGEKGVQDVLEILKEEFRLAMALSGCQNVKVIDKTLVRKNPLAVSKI

A short description of series [3]: In-vivo pharmacokinetic evaluation (exposure, AUC fold-over Example 1). Particulars: male CD-1 mice, 10 mg/kg oral gavage in 20% (2-Hydroxypropyl)-β-cyclodextrin, plasma at 0.5, 2 and 6 hours post-dose; AUC expressed as fold-over Example 1. As for the experimental part:
In-vivo exposure of test compounds was determined in 5-6 week old male CD-1 mice. Mice (n=2/compound) received 10 mg/kg of each compound formulated in 20% (2-Hydroxypropyl)-β-cyclodextrin (10 μL/g) by oral gavage. At 0.5 hours, 2 hours, and 6 hours post-dose, blood samples were collected from the submandibular vein using EDTA as an anticoagulant and stored on ice. Plasma samples were obtained by centrifugation at 4° C. and were analyzed immediately or stored at −20° C. until analysis. Compounds were extracted from mouse plasma with acetonitrile and quantified by LC-MS-MS in the negative ion mode using a standard curve.

The nature of series [4]: Alternate plasma stability assay. Particulars: 5 μM. The series is classed as in vitro ADME, human, dog, mouse. As for the experimental part: Plasma stability. Stock compounds were prepared for testing the stability in human (BioIVT, #BRH1589665), dog (BioIVT, #BGL102122) and mouse (BioIVT, #MSE37887) plasma. 1 mM test compound working solution was prepared in DMSO. A one mM propantheline working solution was prepared in acetonitrile. Propantheline was used as a positive control for human, dog, and mouse plasma in this assay.
Plasma (398 μL) for each compound was added into an incubation plate, and the plate was pre-warmed for 15 minutes at 37° C. The reaction was initiated upon addition of 2 μL of 1 mM working solution (test compounds or control compound) to the plasma to reach a final concentration of 5 μM. The reaction was incubated at 37° C. Aliquots of 50 μL were taken from the reaction samples at 0 and 60 minutes. Adding 450 μL cold acetonitrile containing internal standards stopped the reaction. Once the reaction was stopped, the samples were vortexed for 10 minutes, followed by centrifugation at 3,220 g for 40 minutes to precipitate proteins. The supernatant (100 μL) was transferred to a new plate and diluted with ultrapure water according to the LC-MS signal response and peak shape. Samples were analyzed by LC-MS/MS.

Series [5] has as its system Caco-2 cell monolayers. The series can be described thus: Alternate Caco-2 permeability assay. The series is classed as in vitro ADME. To be noted: alternate Caco-2 assay, 10 μM, 2 hours. As for the experimental part: A working solution for the Caco-2 permeability assay was prepared by diluting test compound stock solutions (2 mM in DMSO) with HBSS (10 mM, pH 7.4) to 10 μM working solution. Metoprolol, erythromycin, and cimetidine were used as the control compounds.
To determine the rate of drug transport in the apical-to-basolateral direction (A-B), 125 μL of the working solution was added to the Transwell insert (apical compartment). 50 μL of each sample was immediately transferred from the apical compartment to 200 μL of acetonitrile containing internal standards (100 nM alprazolam, 200 nM caffeine, and 100 nM tolbutamide) in a new 96-well plate as the initial donor sample (A-B). Samples were vortexed at 1000 rpm for 10 minutes, and the wells in the receiver plate (basolateral compartment) were subsequently filled with 235 μL of transport buffer. Plates were incubated at 37° C. for 2 hours.
To determine the rate of drug transport in the basolateral-to-apical direction (B-A), 285 μL of the working solution was added to the receiver plate wells (basolateral compartment). 50 μL of each sample was transferred immediately from the basolateral compartment to 200 μL of acetonitrile containing internal standards (100 nM alprazolam, 200 nM Caffeine, and 100 nM tolbutamide) in a new 96-well plate as the initial donor sample (B-A). Samples were vortexed at 1000 rpm for 10 minutes, and 75 μL of transport buffer was added to the Transwell insert (apical compartment). Plates were incubated at 37° C. for 2 hours. […]
To determine the Lucifer Yellow leakage after 2 hour transport period, the stock solution of Lucifer yellow was prepared in DMSO and diluted with HBSS (10 mM HEPES, pH 7.4) to reach the final concentration of 100 μM. […] The Lucifer Yellow fluorescence (to monitor monolayer integrity) signal was measured in a fluorescence plate reader at 480 nm excitation and 530 nm emission.

In series [1], `CC(C)CC#Cc1cccc(Oc2[nH]nnc2C(=O)O)c1` [Example 343, 5-(3-(4-Methylpent-1-ynyl)phenoxy)-1H-1,2,3-triazole-4-carboxylic Acid] came in with a compound remained intact of 100%. Further, the concentration for half-maximal inhibition (IC50) in series [2] is 10 nM. Besides, in series [3], the “AUC Fold over Ex. 1” value is 4.3. In addition, in series [4], the “plasma stability half-life (compared with Example 1)” value was “similarly long or longer half-lives”. In addition, the “Papp Efflux Ratio” value in series [5] is “single digits”.

In the case of `O=C(O)c1nn[nH]c1Oc1cccc(C#CCC2CC2)c1` [Example 302, 5-(3-(3-Cyclopropylprop-1-ynyl)phenoxy)-1H-1,2,3-triazole-4-carboxylic Acid], in series [1], the compound remained intact was found to be 100%. In addition, in series [2], the half-inhibitory concentration (IC50) was 13 nM. The “AUC Fold over Ex. 1” value in series [3] is given as 4.1. Moreover, the “plasma stability half-life (compared with Example 1)” value in series [4] is on record as “similarly long or longer half-lives”. Also, the “Papp Efflux Ratio” value in series [5] was “single digits”.

`CS(=O)(=O)c1ccc(C#Cc2cccc(Oc3[nH]nnc3C(=O)O)c2)cc1` [Example 255, 5-(3-(2-(4-(Methylsulfonyl)phenyl)ethynyl)phenoxy)-1H-1,2,3-triazole-4-carboxylic Acid] yielded a compound remained intact in series [1] of 100%. Further, the 50% inhibitory concentration (IC50) in series [2] was 8 nM. The “AUC Fold over Ex. 1” value in series [3] came to 0.1. Further, in series [4], the “plasma stability half-life (compared with Example 1)” value is listed as “similarly long or longer half-lives”.

In the case of `CS(=O)(=O)c1ccc(C#Cc2ccc(Oc3[nH]nnc3C(=O)O)cc2)cc1` [Example 190, 5-(4-(2-(4-(Methylsulfonyl)phenyl)ethynyl)phenoxy)-1H-1,2,3-triazole-4-carboxylic Acid], in series [2], the IC50 is 3 nM. Moreover, the “plasma stability half-life (compared with Example 1)” value in series [4] was “similarly long or longer half-lives”.

As to `O=C(O)c1nn[nH]c1Sc1cccc(C#CCC2CC2)c1` [Example 356, 5-(3-(3-Cyclopropylprop-1-ynyl)phenylthio)-1H-1,2,3-triazole-4-carboxylic Acid], the half-inhibitory concentration (IC50) in series [2] is 6 nM. Further, the “AUC Fold over Ex. 1” value in series [3] stood at 7.4. For the same compound, the “Papp Efflux Ratio” value in series [5] is reported as “single digits”.

Turning to `COc1ccc(C#Cc2cccc(Oc3[nH]nnc3C(=O)O)c2)cn1` [Example 284, 5-(3-(2-(6-Methoxypyridin-3-yl)ethynyl)phenoxy)-1H-1,2,3-triazole-4-carboxylic Acid], in series [2], the IC50 was 5 nM. The “AUC Fold over Ex. 1” value in series [3] came out at 0.2.

Take `O=C(O)c1nn[nH]c1Oc1cccc(C#CC2CCC(F)(F)CC2)c1` [Example 347, 5-(3-(2-(4,4-Difluorocyclohexyl)ethynyl)phenoxy)-1H-1,2,3-triazole-4-carboxylic Acid]: the half-inhibitory concentration (IC50) in series [2] was 21 nM. Besides, in series [3], the “AUC Fold over Ex. 1” value came to 0.7.

Regarding `O=C(O)c1nn[nH]c1Oc1cccc(C#CCc2ccc(F)cc2)c1` [Example 354, 5-(3-(3-(4-Fluorophenyl)prop-1-ynyl)phenoxy)-1H-1,2,3-triazole-4-carboxylic Acid], the IC50 in series [2] turned out to be 5 nM. In addition, the “AUC Fold over Ex. 1” value in series [3] was 2.4.

As for `N#Cc1ccc(C#Cc2cc(Oc3[nH]nnc3C(=O)O)ccc2F)cc1` [Example 268, 4-(3-((4-Cyanophenyl)ethynyl)-4-fluorophenoxy)-1H-1,2,3-triazole-5-carboxylic Acid], the half-inhibitory concentration (IC50) in series [2] was 1 nM. The “AUC Fold over Ex. 1” value in series [3] was found to be 0.3.

On to `Cn1ncc2c(C#Cc3cccc(Oc4[nH]nnc4C(=O)O)c3)cccc21` [Example 315, 5-(3-(2-(1-Methyl-1H-indazol-4-yl)ethynyl)phenoxy)-1H-1,2,3-triazole-4-carboxylic Acid], for which the concentration for half-maximal inhibition (IC50) in series [2] stood at 2 nM. Also, the “AUC Fold over Ex. 1” value in series [3] is 0.3.

Take `O=C(O)c1nn[nH]c1Oc1cccc(C#Cc2ccccc2)c1` [Example 139, 5-(3-(2-Phenylethynyl)phenoxy)-1H-1,2,3-triazole-4-carboxylic Acid]: the half-maximal inhibitory concentration (IC50) in series [2] is 10 nM. The “AUC Fold over Ex. 1” value in series [3] is listed as 1.1.

`O=C(O)c1nn[nH]c1Oc1cccc(C#CC2CCCC2)c1` [Example 29, 5-(3-(2-Cyclopentylethynyl)phenoxy)-1H-1,2,3-triazole-4-carboxylic Acid]: the IC50 in series [2] stood at 10 nM. Moreover, the “AUC Fold over Ex. 1” value in series [3] was 2.5.

Turning to `Cc1ccc(C#Cc2cccc(Oc3[nH]nnc3C(=O)O)c2)cn1` [Example 295, 5-(3-(2-(6-Methylpyridin-3-yl)ethynyl)phenoxy)-1H-1,2,3-triazole-4-carboxylic Acid], in series [2], the IC50 was 1 nM. In series [3], the “AUC Fold over Ex. 1” value is 0.2.

On to `O=C(O)c1nn[nH]c1Oc1cccc(C#CC2CCC2)c1` [Example 25, 5-(3-(2-Cyclobutylethynyl)phenoxy)-1H-1,2,3-triazole-4-carboxylic Acid], for which, in series [2], the IC50 was determined as 18 nM. In series [3], the “AUC Fold over Ex. 1” value is recorded as 2.9.
